Results taken from patent US20120232011A1, “Use of Rapamycin and Rapamycin Derivatives for the Treatment of Bone Loss” (priority 2003, published 2012).
Where two headings read alike, the source gives them in different places.

Legend:
[1] = test system: mouse pre-osteoblastic cell line MC3T3-1b; assay: Osteoblast differentiation in MC3T3-1b cells (alkaline phosphatase staining); format: cell-based; conditions: MC3T3-1b cells with osteogenic stimulus (BMP-2, ascorbic acid, beta-glycerophosphate); read-out: Alkaline phosphatase (ALP) staining IC50
Procedure: Osteoblast differentiation is evaluated in mouse pre-osteoblastic cell line MC3T3-1b, stimulated to differentiate with osteogenic stimulus (a mixture of bone morphogenetic protein 2 (BMP-2), ascorbic acid and beta-glycerophosphate). Osteoplast activity is measured by quantifying culture area covered with alkaline phosphate-positive cells on a 48-well plate. Treatment with rapamycin or the rapamycin derivative, e.g. Compound A, starts at the beginning of cell culture, together with the osteogenic stimulus treatment.

[2] = test system: Cdc2-related serine/threonine PFTAIREI; assay: Gene expression in human osteoclasts: PFTAIREI; format: cell-based; conditions: human osteoclasts after treatment
Procedure: (§1) A.3 Gene expression is analyzed according to a method known in the art, in human osteoclasts after treatment with rapamycin or a derivative thereof.

[3] = test system: bone-resorbing osteoclasts differentiated from non-adherent bone marrow mononuclear cells; assay: Mouse osteoclastogenesis assay (osteoclast formation and activity); format: cell-based
Procedure: Non-adherent bone marrow mononuclear cells from 5-week-old male mice cells are differentiated into bone-resorbing osteoclasts by treatment with a cytokine cocktail containing receptor activator of NF kappa B ligand (RANKL), macrophage-colony stimulating factor (M-CSF) and interleukin-1 (IL-1) alpha. Osteoclast formation is measured after 6 days by quantifying the number of tartrate-resistant acid phosphatase (TRAP)-positive multinucleated cells generated in plastic wells on a 48-well plate. Osteoclast activity is measured after 12 days by quantifying the area of resorbed dentine slices placed in wells on a 48-well plate. Treatment with rapamycin or the rapamycin derivative, e.g. Compound A, starts at the beginning of cell culture, together with the cytokine treatment.

[4] = test system: osteoclast-specific protease cathepsin K; assay: Gene expression in human osteoclasts: cathepsin K; format: cell-based; conditions: human osteoclasts after treatment
Procedure: as §1

[5] = test system: bone-resorbing osteoclasts differentiated from peripheral blood mononuclear cells; assay: Human osteoclastogenesis assay; format: cell-based
Procedure: Peripheral blood mononuclear cells from healthy male donors are differentiated into bone-resorbing osteoclasts by treatment with a cytokine cocktail containing RANKL, M-CSF and transforming growth factor (TGF)-beta 1. Osteoclast formation is measured after 17 days by quantifying the number of TRAP-positive multinucleated cells generated in plastic wells on a 96-well plate. Osteoclast activity is measured after 17 days by quantifying the area of resorbed bone on bovine cortical bone slices placed in wells on a 96-well plate. Treatment with rapamycin or the rapamycin derivative, e.g. Compound A, starts at the beginning of cell culture, together with the cytokine treatment. Collagen fragments are measured by enzyme linked immunosorbent assay (ELISA).

[6] = test system: cancellous bone loss after ovariectomy; assay: Ovariectomized rat model; format: in vivo
Procedure: Before operation, the tibial bone mass and geometry of the animals is measured at baseline by dual-energy x-ray absorptiometry (DEXA) and periphere quantitative computer tomography (pQCT). Following ovariectomy (OVX) or sham operation, skeletally mature rats are treated for 8 weeks daily with 0.15 mg/kg, 0.5 mg/kg, 1.5 mg/kg, or 3.0 mg/kg of rapamycin or a rapamycin derivative, e.g. Compound A, or vehicle alone by oral administration or once a week with 1.5 mg/kg or 5.0 mg/kg of rapamycin or a rapamycin derivative; e.g. Compound A. At the beginning of the treatment, animals receive a fluorochrome label, e.g. calcein (e.g. 30 mg/kg, subcutaneous (s.c.)). Changes in bone mass and geometry (pQCT, DEXA) are evaluated in vivo after 4 weeks of treatment and at 8 weeks before necropsy. Body weight is monitored weekly. The animals are administered two further fluorochrome labels for marking of bone mineralization prior to necropsy, e.g. alizarin e.g. 20 mg/kg, s.c., 10 days prior to necropsy, and calcein e.g. 30 mg/kg, s.c., 3 days prior to necropsy. Blood samples (500 μl blood) are taken in heparin before necropsy and frozen at −20° C. for analysis of calcium, phosphate, TRAP, ALP, and osteocalcin. DEXA measurements are carried out at necropsy on excised tibia, femur, and lumbar vertebrae.

Question: How did the IC50 [1] turn out when `CO[C@H]1C[C@@H]2CC[C@@H](C)[C@@](O)(O2)C(=O)C(=O)N2CCCC[C@H]2C(=O)O[C@H]([C@H](C)C[C@@H]2CC[C@@H](OCCO)[C@H](OC)C2)CC(=O)[C@H](C)/C=C(\C)[C@@H](O)[C@@H](OC)C(=O)[C@H](C)C[C@H](C)/C=C/C=C/C=C/1C` [Compound A, 40-O-(2-hydroxyethyl)-rapamycin] was run?
Answer: The IC50 was 13.5 ± 2.4 nM.

Question: And the “increase of PFTAIREI expression” value [2]?
Answer: Its value is “about 300%”.

Question: And the IC50 ([3]; TRAP-positive multinucleated cells after 6 days, read-out: osteoclast formation IC50)?
Answer: Its IC50 is 10.5 ± 4.6 nM.

Question: What about the IC50 ([3]; area of resorbed dentine slices after 12 days, read-out: osteoclast activity IC50) of the same compound?
Answer: The IC50 was 0.6 ± 0.3 nM.

Question: And the “reduction of cathepsin K expression” value [4]?
Answer: Its value is “about 78%”.

Question: What about the IC50 ([5]; ELISA, read-out: Collagen fragment release IC50) of the same compound?
Answer: Its IC50 is 4 ± 0.5 nM.

Question: What about the IC50 ([5]; TRAP-positive multinucleated cells after 17 days, read-out: osteoclast formation IC50) of the same compound?
Answer: The IC50 was 7.7 ± 1.1 nM.

Question: What about the IC50 ([5]; bovine cortical bone slices, 17 days, read-out: Resorbed area IC50) of the same compound?
Answer: Its IC50 is 3.4 ± 0.3 nM.

Question: What about the “effect on trabecular number” value [6] of the same compound?
Answer: The value was “inhibits reduction of trabecular number”.

Question: And the “inhibition of cancellous bone loss” value ([6]; 3 mg/kg/day, oral)?
Answer: Its value is 60%.
